Reference: patent US7241767B2, “Quinazoline(di)ones for invertebrate pest control” (E. I. du Pont de Nemours and Company, priority 2002, dated 2007)

How the values were obtained:
[1] = test system: green peach aphid (Myzus persicae); test: Test E: control of green peach aphid on radish plant, contact and/or systemic; type: in vivo; conditions: 144 h, sprayed at 250 ppm, visually assessed after 6 days
Description: For evaluating control of green peach aphid (Myzus persicae) through contact and/or systemic means, the test unit consisted of a small- open container with a 12–15-day-old radish plant inside. This was pre-infested by placing on a leaf of the test plant 30–40 aphids on a piece of leaf excised from a culture plant (cut-leaf method). The larvae moved onto the test plant as the leaf piece desiccated. After pre-infestation, the soil of the test unit was covered with a layer of sand.
(§1) Test compounds were formulated using a solution containing 10% acetone, 90% water and 300 ppm X-77® Spreader Lo-Foam Formula non-ionic surfactant containing alkylarylpolyoxyethylene, free fatty acids, glycols and isopropanol (Loveland Industries, Inc.). The formulated compounds were applied in 1 mL of liquid through a SUJ2 atomizer nozzle with ⅛ JJ custom body (Spraying Systems Co.) positioned 1.27 cm (0.5 inches) above the top of each test unit. All experimental compounds in this screen were sprayed at 250 ppm and replicated three times. After spraying of the formulated test compound, each test unit was allowed to dry for 1 hour and then a black, screened cap was placed on top. The test units were held for 6 days in a growth chamber at 19–21° C. and 50–70% relative humidity. Each test unit was then visually assessed for insect mortality.

[2] = test system: cotton melon aphid (Aphis gossypii); test: Test F: control of cotton melon aphid on cotton plant, contact and/or systemic; type: in vivo; conditions: 144 h, sprayed at 250 ppm, visually rated after 6 days
Method: as §1
For evaluating control of cotton melon aphid (Aphis gossypii) through contact and/or systemic means, the test unit consisted of a small open container with a 6–7-day-old cotton plant inside. This was pre-infested with 30–40 aphids on a piece of leaf according to the cut-leaf method described for Test E, and the soil of the test unit was covered with a layer of sand.
Test compounds were formulated and sprayed at 250 ppm as described for Test E. The applications were replicated three times. After spraying, the test units were maintained in a growth chamber and then visually rated as described for Test E.

[3] = test system: Potato Leafhopper (Empoasca fabae Harris); test: Test H: control of Potato Leafhopper on Longio bean plant, contact and/or systemic; type: in vivo; conditions: 144 h, sprayed at 250 ppm, post-infested with adults, visually assessed after 6 days
Method: as §1
For evaluating control of Potato Leafhopper (Empoasca fabae Harris) through contact and/or systemic means, the test unit consisted of a small open container with a 5–6 day old Longio bean plant (primary leaves emerged) inside. White sand was added to the top of the soil and one of the primary leaves was excised prior to application. Test compounds were formulated and sprayed at 250 ppm and replicated three times as described for Test E. After spraying, the test units were allowed to dry for 1 hour before they were post-infested with 5 Potato Leafhoppers (18 to 21 day old adults). A black, screened cap is placed on the top of the cylinder. The test units were held for 6 days in a growth chamber at 19–21° C. and 50–70% relative humidity. Each test unit was then visually assessed for insect mortality.

[4] = test system: Corn Planthopper (Peregrinus maidis); test: Test G: control of Corn Planthopper on corn (maize) plant, contact and/or systemic; type: in vivo; conditions: 144 h, sprayed at 250 ppm, post-infested with nymphs, visually assessed after 6 days
Method: as §1
For evaluating control of Corn Planthopper (Peregrinus maidis) through contact and/or systemic means, the test unit consisted of a small open container with a 3–4 day old corn (maize) plant (spike) inside. White sand was added to the top of the soil prior to application. […] Each test unit was then visually assessed for insect mortality.

CC(C)N1CN(C(=O)c2cc(Cl)nn2-c2ncccc2Cl)c2c(Cl)cc(Cl)cc2C1=O [Compound 8, 6,8-Dichloro-1-[[3-Chloro-1-(3-Chloro-2-pyridinyl)-1H-pyrazol-5-yl]carbonyl]-2,3-dihydro-3-(1-methylethyl)-4(H)-quinazolinone]
mortality at 250 ppm [1]: ≥ 80%
mortality at 250 ppm [2]: ≥ 80%
mortality at 250 ppm [3]: ≥ 80%

CC(C)N1CN(C(=O)c2cc(Br)nn2-c2ncccc2Cl)c2c(Cl)cc(Cl)cc2C1=O [Compound 9, 1-[[3-Bromo-1-(3-Chloro-2-pyridinyl)-1H-pyrazol-5-yl]carbonyl]-6,8-dichloro-2,3-dihydro-3-(1-methylethyl)-4-(1H)-quinazolinone]
mortality at 250 ppm [1]: ≥ 80%
mortality at 250 ppm [2]: ≥ 80%
mortality at 250 ppm [3]: ≥ 80%

CC(C)N1CN(C(=O)c2cc(C(F)(F)F)nn2-c2ncccc2Cl)c2c(Cl)cc(Cl)cc2C1=O [Compound 10, 6,8-Dichloro-1-[[1-(3-Chloro-2-pyridinyl)-3-(trifluoromethyl)-1H-pyrazol-5-yl]carbonyl]-2,3-dihydro-3-(1-methylethyl)-4(1H)-quinazolinone]
mortality at 250 ppm [3]: ≥ 80%

CN1CN(C(=O)c2cc(Cl)nn2-c2ncccc2Cl)c2c(Cl)cc(Cl)cc2C1=O [Compound 11, 6-8-Dichloro-1-[[3-Chloro-1-(3-Chloro-2-pyridinyl)-1H-pyrazol-5-yl]carbonyl]-2,3-dihydro-3-methyl-4(1H)-quinazolinone]
mortality at 250 ppm [1]: ≥ 80%
mortality at 250 ppm [2]: ≥ 80%
mortality at 250 ppm [3]: ≥ 80%

CN1CN(C(=O)c2cc(Br)nn2-c2ncccc2Cl)c2c(Cl)cc(Cl)cc2C1=O [Compound 12, 1-[[3-Bromo-1-(3-Chloro-2-pyridinyl)-1H-pyrazol-5-yl]carbonyl]-6,8-dichloro-2,3-dihydro-3-methyl-4(1H)-quinazolinone]
mortality at 250 ppm [1]: ≥ 80%
mortality at 250 ppm [2]: ≥ 80%
mortality at 250 ppm [4]: ≥ 80%
mortality at 250 ppm [3]: ≥ 80%

CN1CN(C(=O)c2cc(C(F)(F)F)nn2-c2ncccc2Cl)c2c(Cl)cc(Cl)cc2C1=O [Compound 13, 6,8-Dichloro-1-[[1-(3-Chloro-2-pyridinyl)-3-(trifluoromethyl)-1H-pyrazol-5-yl]carbonyl]-2,3-dihydro-3-methyl-4(1H)-quinazolinone]
mortality at 250 ppm [1]: ≥ 80%
mortality at 250 ppm [2]: ≥ 80%
mortality at 250 ppm [4]: ≥ 80%
mortality at 250 ppm [3]: ≥ 80%

Cc1cc(Cl)cc2c1N(C(=O)c1cc(Cl)nn1-c1ncccc1Cl)CN(C(C)C)C2=O [Compound 14, 6-Chloro-1-[[3-Chloro-1-(3-Chloro-2-pyridinyl)-1H-pyrazol-5-yl]carbonyl]-2,3-dihydro-8-methyl-3-(1-methylethyl)-4(1H)-quinazolinone]
melting point: 219 to 220 °C

Cc1cc(Cl)cc2c1N(C(=O)c1cc(Br)nn1-c1ncccc1Cl)CN(C(C)C)C2=O [Compound 15, 1-[[3-Bromo-1-(3-Chloro-2-pyridinyl)-1H-pyrazol-5-yl]carbonyl]-6-Chloro-2,3-dihydro-8-methyl-3-(1-methylethyl)-4-(1H)-quinazolinone]
mortality at 250 ppm [2]: ≥ 80%
mortality at 250 ppm [3]: ≥ 80%

Cc1cc(Cl)cc2c1N(C(=O)c1cc(C(F)(F)F)nn1-c1ncccc1Cl)CN(C(C)C)C2=O [Compound 16, 6-Chloro-1-[[1-(3-Chloro-2-pyridinyl)-3-(trifluoromethyl)-1H-pyrazol-5-yl]carbonyl]-2,3-dihydro-8-methyl-3-(1-methylethyl)-4(1H)-quinazolinone]
mortality at 250 ppm [2]: ≥ 80%
mortality at 250 ppm [3]: ≥ 80%

Cc1cc(Cl)cc2c1N(C(=O)c1cc(Cl)nn1-c1ncccc1Cl)CN(C)C2=O [Compound 17, 6-Chloro-1-[[3-Chloro-1-(3-Chloro-2-pyridinyl)-1H-pyrazol-5-yl]carbonyl]-2,3-dihydro-3,8-dimethyl-4(1H)-quinazolinone]
melting point: 238 to 240 °C

Cc1cc(Cl)cc2c1N(C(=O)c1cc(Br)nn1-c1ncccc1Cl)CN(C)C2=O [Compound 18, 1-[[3-Bromo-1-(3-Chloro-2-pyridinyl)-1H-pyrazol-5-yl]carbonyl]-6-Chloro-2,3-dihydro-3,8-dimethyl-4(1H)-quinazolinone]
melting point: 254 to 255 °C

Cc1cc(Cl)cc2c1N(C(=O)c1cc(C(F)(F)F)nn1-c1ncccc1Cl)CN(C)C2=O [Compound 19, 6-Chloro-1-[[1-(3-Chloro-2-pyridinyl)-3-(tifluoromethyl)-1H-pyrazol-5-yl]carbonyl]-2,3-dihydro-3,8-dimethyl-4(1H)-quinazolinone]
mortality at 250 ppm [1]: ≥ 80%
mortality at 250 ppm [2]: ≥ 80%
mortality at 250 ppm [3]: ≥ 80%

Cc1cccc2c1N(C(=O)c1cc(Cl)nn1-c1ncccc1Cl)C(C(=O)O)N(C(C)C)C2=O (centres unmarked) [Compound 20]
melting point: 143 to 190 °C

O=C1c2cc(Cl)cc(Cl)c2N(C(=O)c2cc(Cl)nn2-c2ncccc2Cl)C(c2cccnc2)N1Cl (centres unmarked) [Compound 22]
melting point: 135 to 156 °C

O=C1c2cc(Cl)cc(Cl)c2N(C(=O)c2cc(Cl)nn2-c2ncccc2Cl)C(c2c[nH]cn2)N1Cl (centres unmarked) [Compound 24]
mortality at 250 ppm [3]: ≥ 80%

O=C1NCN(C(=O)c2cc(Cl)nn2-c2ncccc2Cl)c2c(Cl)cc(Cl)cc21 [Compound 28, 6,8-Dichloro-1-[[3-Chloro-1-(3-Chloro-2-pyridinyl)-1H-pyrazol-5-yl]carbonyl]-2,3-dihydro-4(1H)-quinazolinone]
mortality at 250 ppm [1]: ≥ 80%

O=C1NCN(C(=O)c2cc(C(F)(F)F)nn2-c2ncccc2Cl)c2c(Cl)cc(Cl)cc21 [Compound 29, 6,8-Dichloro-1-[[1-(3-Chloro-2-pyridinyl)-3-(trifluoromethyl)-1H-pyrazol-5-yl]carbonyl]-2,3-dihydro-4(1H)-quinazolinone]
mortality at 250 ppm [1]: ≥ 80%
mortality at 250 ppm [2]: ≥ 80%
mortality at 250 ppm [3]: ≥ 80%
